Test results as given in publication PMC13185819, “De Novo Multi‐Mechanism Antimicrobial Peptide Design via Multimodal Deep Learning” (Advanced Science, 2026).
Converted amounts (≈) assume the structure as drawn. Residues, ends and D or L forms follow the SMILES beside them.

How the values were obtained:
Format in all cases: cell-based
K. pneumoniae 7713 = system: K. pneumoniae 7713
Protocol: (§1) Standard strains included S. aureus ATCC33592, S. aureus CICC25138, and Salmonella enterica ATCC14028, which were purchased from the China Center of Industrial Culture Collection (CICC). Standard strains including E.coli CMCC44102, Salmonella enterica CMCC50071, and S. aureus CMCC26003 were purchased from the National Center for Medical Culture Collections (CMCC). […] All experiments using the above strains were carried out in a BSL‐2 laboratory. The clinical laboratory of Qilu Hospital detected bacterial resistance to various antibiotics. All strains were streaked on Nutrient Broth (NB) agar medium and incubated overnight at 37°C.
(§2) The antimicrobial activity of the peptides was examined in sterile 96‐well plates using the broth microdilution according to the CLSI standard. The colonies were suspended in saline solution, the turbidity was adjusted to McFarland 0.5 to reach a bacterial concentration of 10^8 CFU/mL, and again diluted 100 times for the inhibition test. Then, 50 µL of bacterial suspension at 1 × 10^6 CFU/mL was incubated with the same volume of different concentrations of peptide solution [serial twofold dilutions in Mueller–Hinton Broth (Hopebio)]. […] All experiments were performed with three independent replicates.

P. aeruginosa 119 = system: P. aeruginosa 119
Protocol: as §1, §2

E. faecium 21 = system: E. faecium 21
Protocol: as §1, §2

S. aureus CMCC26003 = system: S. aureus CMCC26003
Protocol: as §1, §2

P. aeruginosa 116 = system: P. aeruginosa 116
Protocol: as §1, §2

S. aureus CICC25138 = system: S. aureus CICC25138
Protocol: as §1, §2

S. aureus 129 = system: S. aureus 129
Protocol: as §1, §2

E.coli CMCC44102 = system: E.coli CMCC44102
Protocol: as §1, §2

E.coli 110 = system: E.coli 110
Protocol: as §1, §2

S. aureus ATCC33592 = system: S. aureus ATCC33592
Protocol: as §1, §2

P. aeruginosa 112 = system: P. aeruginosa 112
Protocol: as §1, §2

S. aureus 103 = system: S. aureus 103
Protocol: as §1, §2

E. faecium 1042 = system: E. faecium 1042
Protocol: as §1, §2

E.coli 208 = system: E.coli 208
Protocol: as §1, §2

SMILES	MIC (μg/mL) K. pneumoniae 7713 (K. pneumoniae 7713) [µg/mL]	MIC (μg/mL) P. aeruginosa 119 (P. aeruginosa 119) [µg/mL]	MIC (μg/mL) E. faecium 21 (E. faecium 21) [µg/mL]	MIC (μg/mL) S. aureus CMCC26003 (S. aureus CMCC26003) [µg/mL]	MIC (μg/mL) P. aeruginosa 116 (P. aeruginosa 116) [µg/mL]	MIC (μg/mL) S. aureus CICC25138 (S. aureus CICC25138) [µg/mL]	MIC (μg/mL) S. aureus 129 (S. aureus 129) [µg/mL]	MIC (μg/mL) E.coli CMCC44102 (E.coli CMCC44102) [µg/mL]	MIC (μg/mL) E.coli 110 (E.coli 110) [µg/mL]	MIC (μg/mL) S. aureus ATCC33592 (S. aureus ATCC33592) [µg/mL]	MIC (μg/mL) P. aeruginosa 112 (P. aeruginosa 112) [µg/mL]	MIC (μg/mL) S. aureus 103 (S. aureus 103) [µg/mL]	MIC (μg/mL) E. faecium 1042 (E. faecium 1042) [µg/mL]	MIC (μg/mL) E.coli 208 (E.coli 208) [µg/mL]
CC[C@H](C)[C@H](NC(=O)[C@H](CCCNC(=N)N)NC(=O)[C@H](Cc1c[nH]c2ccccc12)NC(=O)[C@H](CCCCN)NC(=O)[C@H](CCC(N)=O)NC(=O)[C@H](CCCNC(=N)N)NC(=O)[C@@H](N)CCCNC(=N)N)C(=O)N[C@@H](CC(C)C)C(=O)N[C@@H](C)C(=O)N[C@@H](CC(C)C)C(=O)N[C@@H](CC(N)=O)C(=O)N[C@H](C(=O)N[C@@H](Cc1c[nH]c2ccccc12)C(=O)N[C@@H](CCCCN)C(N)=O)[C@@H](C)CC [QLX-3DV-11] (H-RRQKWRILALNIWK-NH2)	8 (≈ 4.25 µM)	32 (≈ 17 µM)	4 (≈ 2.13 µM)	2 (≈ 1.06 µM)	32 (≈ 17 µM)	16 (≈ 8.51 µM)	4 (≈ 2.13 µM)	4 (≈ 2.13 µM)	4 (≈ 2.13 µM)	8 (≈ 4.25 µM)	4 (≈ 2.13 µM)	16 (≈ 8.51 µM)	4 (≈ 2.13 µM)	8 (≈ 4.25 µM)
CC(C)[C@H](N)C(=O)N[C@@H](CCCCN)C(=O)N[C@H](C(=O)N[C@@H](Cc1ccccc1)C(=O)N[C@@H](CCCNC(=N)N)C(=O)N[C@@H](Cc1ccccc1)C(=O)N[C@@H](Cc1ccc(O)cc1)C(=O)N[C@@H](Cc1c[nH]c2ccccc12)C(=O)N[C@@H](CCCCN)C(=O)N[C@@H](CCCNC(=N)N)C(=O)N[C@@H](CCCCN)C(=O)N[C@@H](CCC(N)=O)C(=O)N[C@@H](CCCNC(=N)N)C(=O)N[C@@H](Cc1ccccc1)C(N)=O)C(C)C [QLX-3DV-12] (H-VKVFRFYWKRKQRF-NH2)	16 (≈ 8.05 µM)	32 (≈ 16.1 µM)	4 (≈ 2.01 µM)	2 (≈ 1.01 µM)	8 (≈ 4.03 µM)	32 (≈ 16.1 µM)	16 (≈ 8.05 µM)	8 (≈ 4.03 µM)	4 (≈ 2.01 µM)	32 (≈ 16.1 µM)	2 (≈ 1.01 µM)	16 (≈ 8.05 µM)	2 (≈ 1.01 µM)	8 (≈ 4.03 µM)
CC(C)C[C@H](NC(=O)[C@H](CC(C)C)NC(=O)[C@H](Cc1ccccc1)NC(=O)[C@H](CCCNC(=N)N)NC(=O)[C@H](CCCNC(=N)N)NC(=O)[C@H](CCCNC(=N)N)NC(=O)[C@H](CC(C)C)NC(=O)[C@H](CC(C)C)NC(=O)[C@H](CCCNC(=N)N)NC(=O)[C@H](CCCNC(=N)N)NC(=O)[C@H](CCC(N)=O)NC(=O)[C@H](Cc1c[nH]c2ccccc12)NC(=O)[C@@H](NC(=O)[C@H](CC(C)C)NC(=O)[C@H](CCCNC(=N)N)NC(=O)[C@H](Cc1ccc(O)cc1)NC(=O)[C@@H](N)CCC(N)=O)C(C)C)C(=O)N[C@@H](CCCCN)C(=O)N[C@@H](C)C(N)=O [QLX-3DV-13] (H-QYRLVWQRRLLRRRFLLKA-NH2)	64 (≈ 24.9 µM)	16 (≈ 6.22 µM)	4 (≈ 1.56 µM)	4 (≈ 1.56 µM)	32 (≈ 12.4 µM)	32 (≈ 12.4 µM)	16 (≈ 6.22 µM)	4 (≈ 1.56 µM)	8 (≈ 3.11 µM)	64 (≈ 24.9 µM)	2 (≈ 0.778 µM)	16 (≈ 6.22 µM)	2 (≈ 0.778 µM)	16 (≈ 6.22 µM)
